Experimental data: PubChem BioAssay (NCI)
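Interpolation was linear, between the two tested concentrations surrounding the appropriate level; five concentrations were tested over 48 hours in 96-well plates. TGI denotes the concentration required for complete inhibition of growth.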

Assays:
Test in all cases: DTP human tumour cell line panel, 48 h
[1] = test system: UACC-62 melanoma
[2] = test system: EKVX NSCLC
[3] = test system: TK-10 renal
[4] = test system: NCI-H460 lung
[5] = test system: HOP-92 NSCLC
[6] = test system: MOLT-4 leukemia
[7] = test system: UO-31 renal
[8] = test system: SNB-75 CNS
[9] = test system: RXF 393 renal
[10] = test system: A549 NSCLC
[11] = test system: KM12 colon
[12] = test system: SF-539 CNS
[13] = test system: OVCAR-8 ovarian
[14] = test system: 786-0 renal
[15] = test system: HOP-62 NSCLC
[16] = test system: CCRF-CEM leukemia
[17] = test system: SK-MEL-2 melanoma
[18] = test system: RPMI-8226 leukemia

Compound | TGI [1] [µM] | TGI [2] [µM] | TGI [3] [µM] | TGI [4] [µM] | TGI [5] [µM] | TGI [6] [µM] | TGI [7] [µM] | TGI [8] [µM] | TGI [9] [µM] | TGI [10] [µM] | TGI [11] [µM] | TGI [12] [µM] | TGI [13] [µM] | TGI [14] [µM] | TGI [15] [µM] | TGI [16] [µM] | TGI [17] [µM] | TGI [18] [µM]
CC1=N[C@](C)(C2CC3C=CC2C3=O)COC1=O (stereo not given in full) | > 100 | > 100 | > 100 | > 100 | > 100 | > 100 | > 100 | > 100 | > 100 | > 100 | > 100 | > 100 | > 100 | > 100 | > 100 | > 100 |  | 
CC(C)CCc1n[nH]c(=O)n1/N=C\c1ccccc1 | > 100 | > 100 | > 100 | > 100 | > 100 | > 100 | 86.1 | > 100 | > 100 | > 100 | > 100 | > 100 | > 100 | > 100 | > 100 | > 100 | > 100 | 
Cc1n[nH]c(=O)n1/N=C\CC/C=N\n1c(C)n[nH]c1=O | > 100 | > 100 | > 100 |  | > 100 | > 100 | > 100 | > 100 | > 100 | > 100 | > 100 | > 100 | > 100 | > 100 | > 100 | > 100 | > 100 | > 100
COc1cccc2nc3cc(C)c(C)cc3nc12 | > 100 | > 100 | > 100 | > 100 | > 100 | > 100 | > 100 | > 100 | > 100 | > 100 | > 100 | > 100 | > 100 | > 100 | > 100 | > 100 | > 100 | 
C=C=C(Sc1ccccc1)C(C)(C)OC(C)=O | 29.2 |  | > 100 | 46.8 | 34.2 | > 100 | 28.6 | 49.8 | 28.4 | 74.8 | 31.4 | 29.8 | 46.9 | 30.1 |  | 58.7 | 35 | > 100
NNCCc1n[nH]c(=O)n1N | > 100 | > 100 |  | > 100 | > 100 | > 100 | > 100 | > 100 | > 100 | > 100 | > 100 | > 100 | > 100 | > 100 | > 100 | > 100 |  | > 100
CC(C)C1COC(c2cccc(C3=N[C@@H](C(C)C)CO3)n2)=N1 (stereo not given in full) |  | > 100 | > 100 | > 100 | > 100 | > 100 | > 100 | > 100 | > 100 | > 100 | > 100 | > 100 |  | > 100 | > 100 | > 100 | > 100 | > 100
